According to article PMC4460250, “Systems Pharmacology Dissecting Holistic Medicine for Treatment of Complex Diseases: An Example Using Cardiocerebrovascular Diseases Treated by TCM” (Evidence-based Complementary and Alternative Medicine : eCAM, 2015):

Experiments:
[1] = in vivo
[2] = in vivo; cited from earlier work

Row | Compound | Class(High: HIA value ≥0.7; Low: HIA value < 0.7) [1] | HIA(Human Intestinal Absorption) [2]
1 | CCO [Ethyl_alcohol] | High (key: High: HIA value ≥0.7; Low: HIA value < 0.7) | 1
2 | CCN[C@H](C)Cc1cccc(C(F)(F)F)c1 [Fenfluramine(R)] | High (key: High: HIA value ≥0.7; Low: HIA value < 0.7) | 0.95
3 | CCN[C@@H](C)Cc1cccc(C(F)(F)F)c1 [Fenfluramine(S)] | High (key: High: HIA value ≥0.7; Low: HIA value < 0.7) | 0.95
4 | C[C@@H](C(=O)O)c1cccc(Oc2ccccc2)c1 [Fenoprofen(R)] | High (key: High: HIA value ≥0.7; Low: HIA value < 0.7) | 0.85
5 | C[C@H](C(=O)O)c1cccc(Oc2ccccc2)c1 [Fenoprofen(S)] | High (key: High: HIA value ≥0.7; Low: HIA value < 0.7) | 0.85
6 | CC(Cc1ccc(O)cc1)NCC(O)c1cc(O)cc(O)c1 (stereo not drawn) [Fenoterol] | Low (key: High: HIA value ≥0.7; Low: HIA value < 0.7) | 0.6
7 | O=C(NC[C@H]1CCCCN1)c1cc(OCC(F)(F)F)ccc1OCC(F)(F)F [Flecainide(R)] | High (key: High: HIA value ≥0.7; Low: HIA value < 0.7) | 0.81
8 | O=C(NC[C@@H]1CCCCN1)c1cc(OCC(F)(F)F)ccc1OCC(F)(F)F [Flecainide(S)] | High (key: High: HIA value ≥0.7; Low: HIA value < 0.7) | 0.81
9 | OCCN1CCN(CC/C=C2/c3ccccc3Sc3ccc(C(F)(F)F)cc32)CC1 [Flupentixol] | High (key: High: HIA value ≥0.7; Low: HIA value < 0.7) | 1
10 | CCN(CC)CCN1C(=O)CN=C(c2ccccc2F)c2cc(Cl)ccc21 [Flurazepam] | High (key: High: HIA value ≥0.7; Low: HIA value < 0.7) | 1
11 | C[C@@H](C(=O)O)c1ccc(-c2ccccc2)c(F)c1 [Flurbiprofen(R)] | High (key: High: HIA value ≥0.7; Low: HIA value < 0.7) | 0.95
12 | C[C@H](C(=O)O)c1ccc(-c2ccccc2)c(F)c1 [Flurbiprofen(S)] | High (key: High: HIA value ≥0.7; Low: HIA value < 0.7) | 0.95
13 | NCC1(CC(=O)O)CCCCC1 [Gabapentin] | Low (key: High: HIA value ≥0.7; Low: HIA value < 0.7) | 0.59
14 | COc1ccc(CCN(C)CCC[C@](C#N)(c2cc(OC)c(OC)c(OC)c2)C(C)C)cc1OC [Gallopamil(R)] | High (key: High: HIA value ≥0.7; Low: HIA value < 0.7) | 0.97
15 | COc1ccc(CCN(C)CCC[C@@](C#N)(c2cc(OC)c(OC)c(OC)c2)C(C)C)cc1OC [Gallopamil(S)] | High (key: High: HIA value ≥0.7; Low: HIA value < 0.7) | 0.97
16 | COc1c(N2CCN[C@H](C)C2)c(F)cc2c(=O)c(C(=O)O)cn(C3CC3)c12 [Gatifloxacin(R)] | High (key: High: HIA value ≥0.7; Low: HIA value < 0.7) | 0.96
17 | COc1c(N2CCN[C@@H](C)C2)c(F)cc2c(=O)c(C(=O)O)cn(C3CC3)c12 [Gatifloxacin(S)] | High (key: High: HIA value ≥0.7; Low: HIA value < 0.7) | 0.96
18 | CN[C@@H]1[C@@H](O)[C@@H](O[C@@H]2[C@@H](O)[C@H](O[C@H]3O[C@H]([C@@H](C)N)CC[C@H]3N)[C@@H](N)C[C@H]2N)OC[C@]1(C)O [GentamicinC2(R)] | Low (key: High: HIA value ≥0.7; Low: HIA value < 0.7) | 0.01
19 | NCC(=O)O [Glycine] | High (key: High: HIA value ≥0.7; Low: HIA value < 0.7) | 1
20 | N=C(N)NC[C@@H]1COC2(CCCCC2)O1 [Guanadrel(R)] | High (key: High: HIA value ≥0.7; Low: HIA value < 0.7) | 0.8
21 | N=C(N)NC[C@H]1COC2(CCCCC2)O1 [Guanadrel(S)] | High (key: High: HIA value ≥0.7; Low: HIA value < 0.7) | 0.8
22 | N=C(N)NC[C@@H]1COc2ccccc2O1 [Guanoxan(R)] | Low (key: High: HIA value ≥0.7; Low: HIA value < 0.7) | 0.5
23 | N=C(N)NC[C@H]1COc2ccccc2O1 [Guanoxan(S)] | Low (key: High: HIA value ≥0.7; Low: HIA value < 0.7) | 0.5
24 | CN1C(=O)NC(=O)C(C)(C2=CCCCC2)C1=O (stereo not drawn) [Hexobarbital] | High (key: High: HIA value ≥0.7; Low: HIA value < 0.7) | 0.95
